Values joined by “and” are separate entries in the source; they are usually repeats but may differ in a detail not shown here. Identical values can stand only once. Like-named read-outs stand apart in the source and are kept apart here.
What was measured:
[1] = system: OVCAR-3 ovary adenocarcinoma cell line; conditions: three day cell proliferation assay; cited from earlier work
[2] = system: OVCAR-3 ovary adenocarcinoma cell line; assay: Cell proliferation assay (ATPlite), OVCAR-3; assay type: cell-based, human; conditions: 5 day proliferation assay
Procedure: (§1) Cell proliferation assays were carried out as described using ATPlite 1step™ (Perkin Elmer, Groningen, The Netherlands). Exposure time was 72 or 120 hours as indicated in the Legends to the Figures. Percentage growth was calculated, relative to the growth of unexposed cells, and relative IC50s were fitted using a four-parameter logistics curve (XLfit 5.3, IDBS). For Figure 4A and 7 dose response curves were redrawn in Prism. To compare the inhibitory potency of compounds in proliferation assays with HCT 116 parental and tetraploid clones, pIC50 (−^10logIC50) values were compared in three independent experiments. A two-tailed Student's t-test was performed to determine whether differences in sensitivity (ΔpIC50) were statistically significant. Caspase 3/7 activity of cancer cells was measured using Caspase-Glo 3/7 Assay kit (cat no. G8093, Promega, Madison USA). Viability of T-ALL cell samples was determined using ATPlite and exposure of 72 hours as described previously.

[3] = system: HCT 116, LoVo, A-172, DoTc2 4510, MG-63, OVCAR-3 cell lines; assay: Time-lapse microscopy, sensitive and resistant cell lines; assay type: cell-based, human; conditions: 100 nM
Procedure: The activity of the mitotic checkpoint was measured by the time between the breakdown of the nuclear envelop and the onset of anaphase (Figure 2A). Under the vehicle-treated control conditions, all sensitive cells were able to accomplish a normal mitosis in approximately 35 minutes (HCT 116, 30 min; LoVo, 41 min; A172, 36 min; Figure 2A and Supplementary Figure 1). In contrast, the three resistant cell lines spent more time in mitosis, i.e., almost one hour (MG-63, 53 min), or up to 2 and 3 hours (DoTc2 4510, 122 min; OVCAR-3, 173 min).
(§2) HCT 116 diploid and tetraploids stably expressed green fluorescent protein-tagged histone 2B (H2B-GFP). All other cell lines were pre-incubated with SiR-DNA (Spirochrome, Switzerland) in order to visualize DNA. Cells were cultured in Leibovitz L15 CO2-independent cell culture medium in 6-well glass bottom chamber (LabTek Corp., Australia) and synchronized by treatment with 2 mM thymidine. After 24 hours of synchronization, and 4 hours before the start of the imaging experiment, medium was replaced by medium without thymidine. […] Image Z-stacks were acquired with 3-μm intervals using a sCMOS camera (DeltaVision RT; Applied Precision, GE Healthcare, Issaquah, WA) and processed using ImageJ software (NIH, Bethesda, MD, USA). Chromosome mis-segregation phenotypes co-occurred and many combinations existed. For clarity, all the events were scored and included: more than two phenotypes, mitotic slippage, DNA bridge, micro-nuclei and multipolar spindle.

[4] = system: DoTc2 4510 cervix carcinoma cell line; assay: Cell proliferation assay (ATPlite), DoTc2 4510; assay type: cell-based, human; conditions: 5 day proliferation assay
Procedure: as §1

[5] = system: HCT 116 parental cells or tetraploids; assay: Colony formation assay; assay type: cell-based, human; conditions: pre-treated 4 days with 100 nM, reseeded
Procedure: After 4 days, the cells were washed with phosphate-buffered saline (PBS) and allowed to recover for 24 hours. The remaining cells were collected and plated at a density of 1000 cells per well in a 96-well plate. After ten days, cells were fixed with 96% methanol for 20 minutes, washed with PBS and stained with 0.1% (w/v) crystal violet over-night. Plates were washed in tap water and allowed to dry before scanning and analysis with ImageJ software (NIH, Bethesda, MD, USA).

[6] = system: post-tetraploid HPT2 cells; assay: Cell proliferation assay, post-tetraploid HPT2; assay type: cell-based, human; conditions: HPT2, five days
Procedure: Cancer cell lines and hTERT-RPE1 retinal pigment epithelial cells were purchased from the American Type Culture Collection (ATCC) (Manassas, VA, U.S.A.) from 2011 to 2014 [41] and cultured in ATCC-recommended media. All experiments were carried out within nine passages of the original vials from ATCC who authenticated the cancer cell lines by short tandem repeat analysis. We verified the mutant status of seven frequently mutated cancer genes (i.e., BRAF, CDKN2A, CTNNB1, EGFR, KRAS, PIK3CA and TP53) by full exome or targeted sequencing. Sequencing results were compared to COSMIC version 75 of the Genomics of Drug Sensitivity in Cancer data base and provided additional authentication of the identity of the cell lines. The isolation and characterization of post-tetraploid clones from HCT 116 has been described previously. The mutation status of the CDKN2A, CTNNB1, KRAS and PIK3CA genes were confirmed by sequence analysis in both the HCT 116 parental cell line and post-tetraploid clones. All experiments were carried out within nine passages of the original cell stocks that were transferred from the Max Planck Institute of Biochemistry (Martinsried, Germany) to Netherlands Translational Research Center.
as §1

[7] = target: T1, full-length Aurora B (Homo sapiens, UniProt Q96GD4); assay: Surface plasmon resonance binding kinetics, Aurora B; conditions: SPR
T1 construct: to the kinase domain of TTK and full-length Aurora B; purchased Carna Biosciences, Inc., Kobe, Japan; host or cells: Sf9 insect cells
T1 sequence (Q96GD4 whole entry, the tested form may be a part): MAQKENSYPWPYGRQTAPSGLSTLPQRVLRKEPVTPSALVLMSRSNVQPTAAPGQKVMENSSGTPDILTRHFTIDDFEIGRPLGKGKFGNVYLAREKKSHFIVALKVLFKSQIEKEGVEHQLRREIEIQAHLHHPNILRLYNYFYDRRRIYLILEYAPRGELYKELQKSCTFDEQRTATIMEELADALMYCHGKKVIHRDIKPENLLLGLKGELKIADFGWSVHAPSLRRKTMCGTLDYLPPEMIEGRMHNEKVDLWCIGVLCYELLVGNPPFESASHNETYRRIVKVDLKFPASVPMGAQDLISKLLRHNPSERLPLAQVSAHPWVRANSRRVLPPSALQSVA
Excerpt: Originally, the compound was identified in a phenotypic screen for molecules that can induce stem-cell like phenotypes. Later this property was attributed to its ability to inhibit the mitotic kinase Aurora B [39].

[8] = system: HCT 116, HPT1, HPT2 and HPT4 cells; assay: Time-lapse microscopy, HCT 116 and post-tetraploid clones; assay type: cell-based, human; conditions: 100 nM, post-tetraploid clones and parental cell line
Procedure: as §2

For `CCc1cccc(CC)c1NC(=O)c1ccn2c1CCc1cnc(Nc3ccc(N4CCN(C)CC4)cc3OC)nc1-2` [NTRC 0066-0], the IC50 [1] is listed as 897 nM and 872 nM, the IC50 [2] is listed as 268 nM and the time-in-mitosis ([3]; all cell lines, nuclear envelope breakdown to anaphase onset) is listed as “approximately 20 min”. For the same compound, the defective anaphases ([3]; resistant cell lines) was 63–71%, the defective anaphases ([3]; sensitive cell lines) was “at least 60%” and the IC50 [4] was 225 nM. For the same compound, the “proliferation after compound wash-out (colony formation)” value [5] was “unable to fully resume proliferation”, the “Efficacy (%)” value ([6]; average of three experiments) was 36% and the IC50 ([6]; geometric average of three experiments) was 44 nM. For the same compound, the Kd ([7]; KD = kd/ka) was 907 nM, the ka ([7]; geometric average) was 13400 M⁻¹ s⁻¹ and the kd ([7]; geometric average) was 0.0122 s⁻¹. The time-in-mitosis [8] was 20 min.

Source: article PMC5503534, “Stable aneuploid tumors cells are more sensitive to TTK inhibition than chromosomally unstable cell lines” (Oncotarget, 2017)
